Legend:
[1] = molecular target: T1, DrTS (trehalose synthase) (Deinococcus radiodurans, UniProt I3NX86); experiment: isomerase assay (trehalose from maltose), HPLC with refractive-index detection; assay type: biochemical
T1 construct: full length, about 552 residues plus vector linkers (residues 1-5 disordered); pET-23a(+), Ni-NTA purified, E. coli BL21 (DE3); homodimer
T1 sequence (I3NX86 1-552): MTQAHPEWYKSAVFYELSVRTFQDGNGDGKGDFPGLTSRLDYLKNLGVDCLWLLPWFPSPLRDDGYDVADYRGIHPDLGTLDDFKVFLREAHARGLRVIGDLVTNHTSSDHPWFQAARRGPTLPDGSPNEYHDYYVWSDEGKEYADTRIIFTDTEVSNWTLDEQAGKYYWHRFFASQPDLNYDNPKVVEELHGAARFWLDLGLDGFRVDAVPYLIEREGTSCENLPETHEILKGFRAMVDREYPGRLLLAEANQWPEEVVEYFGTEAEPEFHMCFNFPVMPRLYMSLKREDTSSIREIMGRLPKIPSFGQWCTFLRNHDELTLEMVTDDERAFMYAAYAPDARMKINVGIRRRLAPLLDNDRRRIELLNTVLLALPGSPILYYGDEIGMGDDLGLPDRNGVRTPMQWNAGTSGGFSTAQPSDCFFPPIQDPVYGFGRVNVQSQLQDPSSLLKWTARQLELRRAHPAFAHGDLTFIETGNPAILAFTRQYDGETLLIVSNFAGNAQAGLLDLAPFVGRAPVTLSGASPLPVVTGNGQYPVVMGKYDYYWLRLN

[2] = molecular target: Deinococcus radiodurans trehalose synthase, wild type (Deinococcus radiodurans); experiment: AUC; sedimentation velocity, 293 K, 42 000 rev/min; enzyme 0.1 mg/ml in 20 mM Tris-HCl pH 7.5, 100 mM NaCl; c(s) distribution with SEDFIT

Row | Compound | IC50 [1] [mM] | stoichiometry N [2]
1 | NC(CO)(CO)CO [Tris] | 4.88 | –
2 | Deinococcus radiodurans trehalose synthase, wild type (enzyme) | – | 2
